From patent US10966978B2, “Dose and regimen for HDM2-p53 interaction inhibitors” (Novartis AG, priority 2016, dated 2021)
In brackets after ≈: the same amount, converted by molar mass. Like-named read-outs stand apart in the source and are kept apart here. Marks after values point to notes of the source that are not given here.

Tests used:
[1] = tested on: SJSA-1 cell line; experiment: Cellular activity in SJSA-1 cell line; type: cell-based; conditions: Homo sapiens
[2] = tested on: advanced TP53 wild-type (WT) leukemias (AML, ALL); type: in vivo, human
Description: Tables 5 and 6 and FIG. 6 provide efficacy information for dosing regimen 1B in comparison to other regimens.

[3] = AML CR patient, 1A 250 mg, March 2017
[4] = AML CR patient, 1A 400 mg, March 2017
[5] = AML CR patient, 2C 45 mg, March 2017
[6] = AML CRi patient, 1B 150 mg, March 2017
[7] = CR, Reg 1A 250 mg, person, September 2017
[8] = CR, Reg 1A 400 mg, Male/71, September 2017
[9] = CR, Reg 1B 120 mg, Male/67, September 2017
[10] = CR, Reg 2C 45 mg, Male/76, September 2017
[11] = CR, Reg 2C 45 mg, person, September 2017
[12] = CRi, Reg 1A 250 mg, person, September 2017
[13] = CRi, Reg 1B 150 mg, person, September 2017
[14] = CRi, Reg 2C 45 mg, Male/70, September 2017
[15] = CRi, Reg 2C 45 mg, Male/79, September 2017
[16] = CRi, Reg 2C 45 mg, person one, September 2017
[17] = CRi, Reg 2C 45 mg, person three, September 2017
[18] = Dose escalation, Regimen 2C 45 mg (8 patients), September 2017
[19] = Dose expansion, Regimen 2C 45 mg (17 patients), September 2017
[20] = Regimen 1A (n = 15), March 2017

## COc1ncc(-c2nc3c(n2C(C)C)[C@H](c2ccc(Cl)cc2)N(c2cc(Cl)cn(C)c2=O)C3=O)c(OC)n1 [HDM201, (S)-5-(5-Chloro-1-methyl-2-oxo-1,2-dihydro-pyridin-3-yl)-6-(4-chloro-phenyl)-2-(2,4-dimethoxy-pyrimidin-5-yl)-1-isopropyl-5,6-dihydro-1H-pyrrolo[3,4-d]imidazol-4-one]
[1]
  IC50: 0.0294 µg/mL (≈ 0.0529 µM)
[2]; [3]
  Count recovery time from C1D1: 48 days
  Duration of CR/CRi: 50 days
  Time to CR/CRi: 7 weeks
[2]; [4]
  Count recovery time from C1D1: 40 days
  Duration of CR/CRi: 23 days
  Time to CR/CRi: 6 weeks
[2]; [5]
  Count recovery time from C1D1: 32 days
  Duration of CR/CRi: 152 days
  Time to CR/CRi: 5 weeks
[2]; [6]
  Duration of CR/CRi: 51 days
  Time to CR/CRi: 11 weeks
[2]; AML CRi patient, 2C 45 mg, donor five, March 2017, patient withdrew consent while on CRi
  Duration of CR/CRi: 1* days
[2]; AML CRi patient, 2C 45 mg, donor two, March 2017, patient ongoing at data cut off
  Duration of CR/CRi: 1^† days
[2]; AML patients, Regimen 1B, September 2017
  CR/CRi results, number of patients: The already observed 2 CR/CRi results out of the small number of patients treated so far demonstrate the strong antitumor activity of the HDM201 in AML patients when dosed according to Regimen 1B.
[2]; [7]
  Count recovery time from C1D1: 48 days
  Duration of CR/CRi: 50 days
  Time to CR/CRI: 7 weeks
[2]; [8]
  Count recovery time from C1D1: 40 days
  Duration of CR/CRi: 23 days
  Time to CR/CRI: 6 weeks
[2]; [9]
  Count recovery time from C1D1: 28 days
  Duration of CR/CRi: 45 days
  Time to CR/CRI: 4 weeks
[2]; [10]
  Count recovery time from C1D1: 32 days
  Duration of CR/CRi: 152 days
  Time to CR/CRI: 5 weeks
[2]; [11]
  Count recovery time from C1D1: 30 days
  Duration of CR/CRi: 41 days
  Time to CR/CRI: 4 weeks
[2]; [12]
  Duration of CR/CRi: 67 days
  Time to CR/CRI: 3 weeks
[2]; [13]
  Duration of CR/CRi: 51 days
  Time to CR/CRI: 11 weeks
[2]; [14]
  Duration of CR/CRi: 1 days
  Time to CR/CRI: 12 weeks
[2]; [15]
  Duration of CR/CRi: 62 days
  Time to CR/CRI: 4 weeks
[2]; [16]
  Duration of CR/CRi: 105 days
  Time to CR/CRI: 4 weeks
[2]; [17]
  Duration of CR/CRi: 40 days
  Time to CR/CRI: 7 weeks
[2]; Dose escalation, Regimen 1A 250 mg (3 patients), September 2017
  CR, number of patients: 250 mg (3): 1 CR
[2]; Dose escalation, Regimen 1A 400 mg (9 patients), September 2017
  CR, number of patients: 400 mg (9): 1 CR
[2]; Dose escalation, Regimen 1B 120 mg (6 patients), September 2017
  CR, number of patients: 120 mg (6): 1 CR
[2]; Dose escalation, Regimen 1B 150 mg (6 patients), September 2017
  CRi, number of patients: 150 mg (6): 1 CRi
[2]; [18]
  CR, number of patients: 1
  CRi, number of patients: 3
[2]; Dose expansion, Regimen 1A 250 mg, 6 pts, September 2017
  CRi, number of patients: 1 CRi
[2]; [19]
  CR, number of patients: 1 CR, 1CRi
  CRi, number of patients: 1 CR, 1CRi
[2]; [20]
  BOR: CR: 2 (13) n (%)
  BOR: CRi: 0 (0) n (%)
  ORR (CR + CRi + PR): 2 (13) n (%)
[2]; Regimen 1B (n = 6), March 2017
  BOR: CR: 0 (0) n (%)
  BOR: CRi: 1 (17) n (%)
  ORR (CR + CRi + PR): 1 (17) n (%)
[2]; Regimen 2A (n = 7), March 2017
  BOR: CR: 0 (0) n (%)
  BOR: CRi: 0 (0) n (%)
  ORR (CR + CRi + PR): 0 (0) n (%)
[2]; Regimen 2C (n = 7), March 2017
  BOR: CR: 1 (14) n (%)
  BOR: CRi: 3 (43) n (%)
  ORR (CR + CRi + PR): 4 (57) n (%)
[2]; Total (N = 35), March 2017
  BOR: CR: 3 (9) n (%)
  BOR: CRi: 4 (11) n (%)
  ORR (CR + CRi + PR): 7 (20) n (%)
[2]; regimen 1B, hematological tumors
  patients with CRi: One patient
